Like-named read-outs stand apart in the source and are kept apart here.
Experiment: Plasma concentration versus time of Compound I and metabolite Compound III in patients dosed QD or BID with Form B of Compound II plus fulvestrant
Assay type: in vivo, human
Conditions: human, plasma, oral; for concentration at 8 day: Day 8; for concentration at 15 day: Day 15; for concentration at 22 day: Day 22
Excerpt: Patients were enrolled into 1 of 2 parallel, independently operating, dose-escalation dosing cohorts with Form B of Compound II administered continuously either once daily (QD) or twice daily (BID) with food with fixed-dose fulvestrant (intramuscularly every 14 days for the first three injections and then every 28 days). Pre- or perimenopausal patients also received goserelin for the duration of study treatment. A […] agonist was started at least 28 days before the first dose of Form B, and those patients who were taking another LHRH agonist were switched to goserelin on Day 1. Patients were split into […] cohorts providing once a day (QD) dosing of 200 mg, 300 mg, 400 mg, 500 mg, or 650 mg of Form B, or twice a day (BID) dosing of 100 mg, 150 mg, or 200 mg of Form B. The second dose in BID cohorts was not administered in the evening until at least 12 hours after the initial morning dose of Form B. The dosing cohorts for Form B of Compound II are provided in Table 1.
Blood samples were collected at the following time points relative to the morning dose of Form B at Day 1 and at Day 29: pre-dose (0 hour) and 1, 2, 3, 4, 6, 8, 10, 12 (prior to the evening dose in the BID cohorts), and 24 (prior to the next day's morning dose) hours after dosing. A 5-minute time window was allowed for samples collected between the predose and 3 hours after Form B dosing. A 15-minute window was allowed for samples collected between 4 to 12 hours after Form B dosing. A 1-hour window was allowed for the sample collected 24 hours after Form B dosing. Blood samples for Compound I PK trough levels were collected pre-dose at Day 8, Day 15, and Day 22 prior to the morning administration of Compound I. Plasma concentrations of Compound I and its metabolite, Compound III, were measured using validated methods.
Analysis of plasma concentration versus time data for calculation of standard pharmacokinetic (PK) parameters following oral administration was conducted using Phoenix WinNonlin version 6.3 using actual blood sampling times.

[1] = 650 mg, Cohort 5, 650 mg QD of Form B, read-out: Trough Compound III Concentration, Max
[2] = 650 mg, Cohort 5, 650 mg QD of Form B, read-out: Trough Compound III Concentration, Mean
[3] = 650 mg, Cohort 5, 650 mg QD of Form B, read-out: Trough Compound III Concentration, Median
[4] = 650 mg, Cohort 5, 650 mg QD of Form B, read-out: Trough Compound III Concentration, Min

Compound `O=C1NCC2(CCCCC2)n2c1cc1cnc(Nc3ccc(N4CCNCC4)cn3)nc12` [Compound III, 2′-((5-(piperazin-1-yl)pyridin-2-yl)amino)-7′,8′-dihydro-6′H-spiro[cyclohexane-1,9′-pyrazino[1′,2′:1,5]pyrrolo[2,3-d]pyrimidin]-6′-one] has a concentration at 8 h (500 mg, Cohort 4, 500 mg QD of Form B, Day 29, 8.0 h, read-out: Compound III Concentration, Mean) of 3.56 ng/mL, a concentration at 8 h (500 mg, Cohort 4, 500 mg QD of Form B, Day 29, 8.0 h, read-out: Compound III Concentration, Min) of 3.3 ng/mL and a concentration at 10 h (500 mg, Cohort 4, 500 mg QD of Form B, Day 29, 10.0 h, read-out: Compound III Concentration, Max) of 2.88 ng/mL. The concentration at 10 h (500 mg, Cohort 4, 500 mg QD of Form B, Day 29, 10.0 h, read-out: Compound III Concentration, Mean) was 2.66 ng/mL, the concentration at 10 h (500 mg, Cohort 4, 500 mg QD of Form B, Day 29, 10.0 h, read-out: Compound III Concentration, Min) was 2.52 ng/mL and the concentration at 12 h (500 mg, Cohort 4, 500 mg QD of Form B, Day 29, 12.0 h, read-out: Compound III Concentration, Max) was 2.55 ng/mL. It also gave a concentration at 12 h (500 mg, Cohort 4, 500 mg QD of Form B, Day 29, 12.0 h, read-out: Compound III Concentration, Mean) of 2.33 ng/mL, a concentration at 12 h (500 mg, Cohort 4, 500 mg QD of Form B, Day 29, 12.0 h, read-out: Compound III Concentration, Min) of 2.1 ng/mL and a concentration at 24 h (500 mg, Cohort 4, 500 mg QD of Form B, Day 29, […], read-out: Compound III Concentration, Mean) of 1.24 ng/mL. For the same compound, the concentration at 24 h (500 mg, Cohort 4, 500 mg QD of Form B, Day 29, […], read-out: Compound III Concentration, Min) was 0.959 ng/mL, the concentration at 0 h (650 mg, 650 mg QD of Form B, Day 1, 0.0 h, Mean, read-out: Compound III Concentration) was 0 ng/mL and the concentration at 0 h (650 mg, 650 mg QD of Form B, Day 1, 0.0 h, Median, read-out: Compound III Concentration) was 0 ng/mL. It also gave a concentration at 1 h (650 mg, 650 mg QD of Form B, Day 1, 1.0 h, Mean, read-out: Compound III Concentration) of 2.73 ng/mL, a concentration at 1 h (650 mg, 650 mg QD of Form B, Day 1, 1.0 h, Median, read-out: Compound III Concentration) of 2.77 ng/mL and a concentration at 2 h (650 mg, 650 mg QD of Form B, Day 1, 2.0 h, Mean, read-out: Compound III Concentration) of 4.01 ng/mL. For the same compound, the concentration at 2 h (650 mg, 650 mg QD of Form B, Day 1, 2.0 h, Median, read-out: Compound III Concentration) was 3.81 ng/mL, the concentration at 3 h (650 mg, 650 mg QD of Form B, Day 1, 3.0 h, Mean, read-out: Compound III Concentration) was 6.13 ng/mL and the concentration at 3 h (650 mg, 650 mg QD of Form B, Day 1, 3.0 h, Median, read-out: Compound III Concentration) was 6.43 ng/mL. The concentration at 4 h (650 mg, 650 mg QD of Form B, Day 1, 4.0 h, Mean, read-out: Compound III Concentration) was 8.35 ng/mL, the concentration at 4 h (650 mg, 650 mg QD of Form B, Day 1, 4.0 h, Median, read-out: Compound III Concentration) was 9.22 ng/mL and the concentration at 6 h (650 mg, 650 mg QD of Form B, Day 1, 6.0 h, Mean, read-out: Compound III Concentration) was 9.69 ng/mL. It also gave a concentration at 6 h (650 mg, 650 mg QD of Form B, Day 1, 6.0 h, Median, read-out: Compound III Concentration) of 10 ng/mL, a concentration at 8 h (650 mg, 650 mg QD of Form B, Day 1, 8.0 h, Mean, read-out: Compound III Concentration) of 10.1 ng/mL and a concentration at 8 h (650 mg, 650 mg QD of Form B, Day 1, 8.0 h, Median, read-out: Compound III Concentration) of 8.66 ng/mL. For the same compound, the concentration at 10 h (650 mg, 650 mg QD of Form B, Day 1, 10.0 h, Mean, read-out: Compound III Concentration) was 6.63 ng/mL, the concentration at 10 h (650 mg, 650 mg QD of Form B, Day 1, 10.0 h, Median, read-out: Compound III Concentration) was 5.32 ng/mL and the concentration at 12 h (650 mg, 650 mg QD of Form B, Day 1, 12.0 h, Mean, read-out: Compound III Concentration) was 5.12 ng/mL. The concentration at 12 h (650 mg, 650 mg QD of Form B, Day 1, 12.0 h, Median, read-out: Compound III Concentration) was 4.41 ng/mL, the concentration at 24 h (650 mg, 650 mg QD of Form B, Day 1, […], Mean, read-out: Compound III Concentration) was 2.17 ng/mL and the concentration at 24 h (650 mg, 650 mg QD of Form B, Day 1, […], Median, read-out: Compound III Concentration) was 1.51 ng/mL. For the same compound, the concentration at 8 day [1] was 4.96 ng/mL, the concentration at 8 day [2] was 3.55 ng/mL and the concentration at 8 day [3] was 3.79 ng/mL. It also gave a concentration at 8 day [4] of 1.65 ng/mL, a concentration at 15 day [1] of 3.6 ng/mL and a concentration at 15 day [2] of 3.13 ng/mL. The concentration at 15 day [3] was 3.52 ng/mL, the concentration at 15 day [4] was 2.28 ng/mL and the concentration at 22 day [1] was 5.65 ng/mL. For the same compound, the concentration at 22 day [2] was 3.7 ng/mL, the concentration at 22 day [3] was 3.11 ng/mL and the concentration at 22 day [4] was 2.34 ng/mL. It also gave a concentration at 0 h (650 mg, Cohort 5, 650 mg QD of Form B, Day 29, 0.0 h, read-out: Compound III Concentration, Median) of 2.06 ng/mL, a concentration at 0 h (650 mg, Cohort 5, 650 mg QD of Form B, Day 29, 0.0 h, read-out: Compound III Concentration, Min) of 1.3 ng/mL and a concentration at 1 h (650 mg, Cohort 5, 650 mg QD of Form B, Day 29, 1.0 h, read-out: Compound III Concentration, Median) of 2.49 ng/mL. For the same compound, the concentration at 1 h (650 mg, Cohort 5, 650 mg QD of Form B, Day 29, 1.0 h, read-out: Compound III Concentration, Min) was 1.28 ng/mL, the concentration at 2 h (650 mg, Cohort 5, 650 mg QD of Form B, Day 29, 2.0 h, read-out: Compound III Concentration, Median) was 3.14 ng/mL and the concentration at 2 h (650 mg, Cohort 5, 650 mg QD of Form B, Day 29, 2.0 h, read-out: Compound III Concentration, Min) was 1.85 ng/mL. The concentration at 3 h (650 mg, Cohort 5, 650 mg QD of Form B, Day 29, 3.0 h, read-out: Compound III Concentration, Median) was 3.89 ng/mL, the concentration at 3 h (650 mg, Cohort 5, 650 mg QD of Form B, Day 29, 3.0 h, read-out: Compound III Concentration, Min) was 2.61 ng/mL and the concentration at 4 h (650 mg, Cohort 5, 650 mg QD of Form B, Day 29, 4.0 h, read-out: Compound III Concentration, Median) was 4.78 ng/mL. It also gave a concentration at 4 h (650 mg, Cohort 5, 650 mg QD of Form B, Day 29, 4.0 h, read-out: Compound III Concentration, Min) of 3.42 ng/mL, a concentration at 6 h (650 mg, Cohort 5, 650 mg QD of Form B, Day 29, 6.0 h, read-out: Compound III Concentration, Median) of 7.57 ng/mL and a concentration at 6 h (650 mg, Cohort 5, 650 mg QD of Form B, Day 29, 6.0 h, read-out: Compound III Concentration, Min) of 5.3 ng/mL. For the same compound, the concentration at 8 h (650 mg, Cohort 5, 650 mg QD of Form B, Day 29, 8.0 h, read-out: Compound III Concentration, Median) was 8.64 ng/mL, the concentration at 8 h (650 mg, Cohort 5, 650 mg QD of Form B, Day 29, 8.0 h, read-out: Compound III Concentration, Min) was 5.18 ng/mL and the concentration at 10 h (650 mg, Cohort 5, 650 mg QD of Form B, Day 29, 10.0 h, read-out: Compound III Concentration, Min) was 4.64 ng/mL. For the same compound, the concentration at 12 h (650 mg, Cohort 5, 650 mg QD of Form B, Day 29, 12.0 h, read-out: Compound III Concentration, Min) was 3.42 ng/mL, the concentration at 24 h (650 mg, Cohort 5, 650 mg QD of Form B, Day 29, […], read-out: Compound III Concentration, Median) was 3.04 ng/mL and the concentration at 24 h (650 mg, Cohort 5, 650 mg QD of Form B, Day 29, […], read-out: Compound III Concentration, Min) was 2.49 ng/mL.
